Key:
[1] = tested on: beta-adrenergic receptors; experiment: beta-adrenergic blocking action and its selectivity (cardiac, vascular smooth muscle, metabolic effects); assay type: in vivo; details: for relative specificity of beta-adrenergic antagonism, peripheral vasculature versus heart: effects of beta-adrenergic agonists; for level of activity: in vivo

| SMILES | anti-arrhythmic activity (anti-arrhythmic activity) | anti-arrhythmic potency relative to procainamide (anti-arrhythmic activity; versus procainamide) [times] | anti-arrhythmic potency relative to quinidine (anti-arrhythmic activity; versus quinidine) [times] | relative specificity of beta-adrenergic antagonism, peripheral vasculature versus heart [1] | level of activity [1] | selectivity of beta-adrenergic blocking action, cardiac and smooth muscle versus metabolic effects ([1]; versus anti-hyperglycemia and anti-hyperlactacidemia) |
| --- | --- | --- | --- | --- | --- | --- |
| CC(C)NCC(O)c1ccc(NS(=O)(=O)N(C)C)cc1 (centres unmarked) [N,N-dimethyl-N'-[4-(1-hydroxy-2-isopropylaminoethyl)phenyl]sulfamide] | potent anti-arrhythmic agent | 2.6 | 1.3 | relative specificity for antagonism of the effects of beta-adrenergic agonists on the peripheral vasculature | high level of activity | relatively selective for cardiac and smooth muscle as opposed to the metabolic effects of anti-hyperglycemia and anti-hyperlactacidemia |
| CC(C)NCC(O)c1ccc(NS(N)(=O)=O)cc1 (centres unmarked) [N-[4-(1-hydroxy-2-isopropylaminoethyl)phenyl]sulfamide] |  |  |  | relatively stronger antagonist of the direct cardiac stimulatory effects evoked by beta-adrenergic agonists than of the peripheral vascular smooth muscle | high level of activity |  |
